Data reported in patent US20240376113A1 (Volastra Therapeutics, Inc., priority 2020, published 2024).
Like-named read-outs stand apart in the source and are kept apart here.

Biological target: ENPP-1 ECD (Homo sapiens (Human), UniProt P22413)
Assay: Inhibition of ENPP1 hydrolysis of 2′,3′-cGAMP (Assay 1)
Conditions: AMP-Glo luminescence, KI from IC50 via Cheng/Prusoff
[1] = read-out: Assay 1 KI values (class), 2,3-cGAMP 24 μM
[2] = read-out: Assay 1 KI, 2,3-cGAMP 24 μM
[3] = Assay 1 KI values (class), 2,3-cGAMP 24 μM

Chain of ENPP-1 ECD (P22413 98-925): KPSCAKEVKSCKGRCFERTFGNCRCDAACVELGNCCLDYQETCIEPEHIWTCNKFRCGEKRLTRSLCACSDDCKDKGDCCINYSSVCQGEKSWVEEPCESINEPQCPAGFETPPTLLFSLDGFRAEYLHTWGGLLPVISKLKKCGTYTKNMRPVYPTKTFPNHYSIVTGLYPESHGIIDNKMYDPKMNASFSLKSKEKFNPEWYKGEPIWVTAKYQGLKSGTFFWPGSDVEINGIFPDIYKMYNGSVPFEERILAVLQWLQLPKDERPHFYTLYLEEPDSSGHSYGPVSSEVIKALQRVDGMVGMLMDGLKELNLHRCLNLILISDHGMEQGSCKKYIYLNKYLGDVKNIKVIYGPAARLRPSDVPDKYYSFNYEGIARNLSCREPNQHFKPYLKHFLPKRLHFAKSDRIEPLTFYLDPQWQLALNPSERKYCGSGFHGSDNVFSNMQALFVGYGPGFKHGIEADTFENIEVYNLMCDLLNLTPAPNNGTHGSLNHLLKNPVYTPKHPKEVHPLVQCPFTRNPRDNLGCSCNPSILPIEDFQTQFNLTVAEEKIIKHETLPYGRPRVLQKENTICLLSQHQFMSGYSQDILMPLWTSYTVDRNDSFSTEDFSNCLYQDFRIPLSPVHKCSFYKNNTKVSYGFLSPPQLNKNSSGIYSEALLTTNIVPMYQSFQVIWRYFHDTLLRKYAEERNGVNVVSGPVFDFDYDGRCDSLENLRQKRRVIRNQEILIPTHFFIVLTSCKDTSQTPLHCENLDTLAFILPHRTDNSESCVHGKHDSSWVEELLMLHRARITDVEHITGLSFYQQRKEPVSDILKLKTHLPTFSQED
Experimental: Test compounds were plated in a 3× dilution scheme in a 384 well plate.

| Compound | Ki [1] [nM] | Ki [2] [nM] | Ki [3] [nM] | Ki (Assay 1 KI, 2,3-cGAMP 24 μM) [nM] |
| --- | --- | --- | --- | --- |
| 3-[(4-{[7-(dimethylamino)-5-methyl-[1,2,4]triazolo[1,5-a]pyrimidin-6-yl]methyl}phenyl)(imino)oxo-λ^6-sulfanyl]propaneitrile [Compound 61] | < 3 | 0.375 | – | – |
| Cc1nc2ncnn2c(N(C)C)c1Cc1ccc([S@](C)(=N)=O)cc1 (single isomer, unassigned) [Compound 1a] | 3 to 300 | 13.4 | – | – |
| Cc1nc2ncnn2c(N2CCCC2)c1Cc1ccc([S@@](C)(=N)=O)cc1 (single isomer, unassigned) [Compound 8b] | 3 to 300 | 13.4 | – | – |
| Cc1cc2ncnn2c(N(C)C)c1Cc1ccc([S@@](C)(=N)=O)cc1 (single isomer, unassigned) [Compound 28b] | 3 to 300 | 10 | – | – |
| Cc1nc2ncnn2c(N(C)C)c1Cc1cccc(NS(N)(=O)=O)c1 [Compound 3, N-(3-{[7-(dimethylamino)-5-methyl-[1,2,4]triazolo[1,5-a]pyrimidin-6-yl]methyl}phenyl)aminosulfonamide] | – | – | 3 to 300 | 222 |
| Cc1nc2ncnn2c(N(C)C)c1Cc1cccc(S(C)(=N)=O)c1 (stereo not shown) [Compound 4, (3-((7-(dimethylamino)-5-methyl-[1,2,4]triazolo[1,5-a]pyrimidin-6-yl)methyl)phenyl)(imino)(methyl)-λ^6-sulfanone] | – | 537 | > 300 | – |
| Cc1nc2ncnn2c(N(C)C)c1CC1CCN(S(N)(=O)=O)CC1 [Compound 15, 4-{[7-(dimethylamino)-5-methyl-[1,2,4]triazolo[1,5-a]pyrimidin-6-yl]methyl}piperidine-1-sulfonamide] | – | 495 | 3 to 300 | – |
| Cc1nc2ncnn2c(N2CCCCC2)c1Cc1ccc([S@@](C)(=N)=O)cc1 [Compound 16b] | 3 to 300 | 3.17 | – | – |
| Cc1nc2ncnn2c(-n2cccn2)c1Cc1ccc(S(C)(=N)=O)cc1 (stereo not shown) [Compound 18, imino(methyl)(4-((5-methyl-7-(1H-pyrazol-1-yl)-[1,2,4]triazolo[1,5-a]pyrimidin-6-yl)methyl)phenyl)-λ^6-sulfanone] | – | 6.99 | 3 to 300 | – |
| Cc1nc2ncnn2c(C)c1Cc1ccc(S(C)(=N)=O)cc1 (stereo not shown) [Compound 26, [4-({5,7-dimethyl-[1,2,4]triazolo[1,5-a]pyrimidin-6-yl}methyl)phenyl](imino)methyl-λ6-sulfanone] | – | 13.6 | 3 to 300 | – |
| Cc1nc2ncnn2c(N2C3CCC2CC3)c1Cc1ccc(S(C)(=N)=O)cc1 (stereo not shown) [Compound 44, {4-[(7-{7-azabicyclo[2.2.1]heptan-7-yl}-5-methyl-[1,2,4]triazolo[1,5-a]pyrimidin-6-yl)methyl]phenyl}(imino)methyl-λ^6-sulfanone] | – | – | 3 to 300 | – |
| Cc1nc2ncnn2c(N2CC3CC(C3)C2)c1Cc1ccc(S(C)(=N)=O)cc1 (stereo not shown) [Compound 46, {4-[(7-{3-azabicyclo[3.1.1]heptan-3-yl}-5-methyl-[1,2,4]triazolo[1,5-a]pyrimidin-6-yl)methyl]phenyl}(imino)methyl-λ^6-sulfanone] | – | – | 3 to 300 | – |
| Cc1nc2ncnn2c(N2C3CCCC2CC3)c1Cc1ccc(S(C)(=N)=O)cc1 (stereo not shown) [Compound 47] | – | 50.9 | 3 to 300 | – |

More lines, now with the values ahead:

| Ki [1] [nM] | Ki [2] [nM] | Ki [3] [nM] | Ki (Assay 1 KI, 2,3-cGAMP 24 μM) [nM] | Compound |
| --- | --- | --- | --- | --- |
| < 3 | 0.356 | – | – | Cc1nc2ncnn2c(N(C)C)c1Cc1ccc([S@](C)(=N)=O)cc1 (single isomer, unassigned) [Compound 49b] |
| – | 11.1 | – | – | Cc1c(Cc2ccc([S@](C)(=N)=O)cc2)c(N(C)C)n2ncnc2c1C#N (single isomer, unassigned) [Compound 85b] |
| 3 to 300 | 42.2 | – | – | Cc1nc2nccn2c(N(C)C)c1Cc1ccc([S@@](C)(=N)=O)cc1 [Compound 29b] |
| – | 37.9 | 3 to 300 | – | CCN(CC)c1c(Cc2ccc(S(C)(=N)=O)cc2)c(C)nc2ncnn12 (stereo not shown) [Compound 38] |
| – | – | 3 to 300 | – | Cc1nc2ncnn2c(N(C)C2CC2)c1Cc1ccc(S(C)(=N)=O)cc1 (stereo not shown) [Compound 39, [4-({7-[cyclopropyl(methyl)amino]-5-methyl-[1,2,4]triazolo[1,5-a]pyrimidin-6-yl}methyl)phenyl](imino)methyl-λ^6-sulfanone] |
| – | 27 | 3 to 300 | – | Cc1nc2ncnn2c(N(C)C2CCC2)c1Cc1ccc(S(C)(=N)=O)cc1 (stereo not shown) [Compound 40] |
| – | 10.8 | 3 to 300 | – | Cc1nc2ncnn2c(N2CC(F)(F)C2)c1Cc1ccc(S(C)(=N)=O)cc1 (stereo not shown) [Compound 41] |
| – | – | 3 to 300 | – | Cc1nc2ncnn2c(N2CC(C)(C)C2)c1Cc1ccc(S(C)(=N)=O)cc1 (stereo not shown) [Compound 42, (4-{[7-(3,3-dimethylazetidin-1-yl)-5-methyl-[1,2,4]triazolo[1,5-a]pyrimidin-6-yl]methyl}phenyl)(imino)methyl-λ^6-sulfanone] |
| – | – | 3 to 300 | – | Cc1nc2ncnn2c(N2CCC(F)(F)CC2)c1Cc1ccc(S(C)(=N)=O)cc1 (stereo not shown) [Compound 43, (4-{[7-(4,4-difluoropiperidin-1-yl)-5-methyl-[1,2,4]triazolo[1,5-a]pyrimidin-6-yl]methyl}phenyl)(imino)methyl-λ^6-sulfanone] |
| – | 9.83 | 3 to 300 | – | Cc1nc2ncnn2c(N2CC3CC2C3)c1Cc1ccc(S(C)(=N)=O)cc1 (stereo not shown) [Compound 45, {4-[(7-{2-azabicyclo[2.1.1]heptan-2-yl}-5-methyl-[1,2,4]triazolo[1,5-a]pyrimidin-6-yl)methyl]phenyl}(imino)methyl-λ^6-sulfanone] |
| – | 2.65 | < 3 | – | Cc1nc2ncnn2c(N2CC3CC3C2)c1Cc1ccc(S(C)(=N)=O)cc1 (stereo not shown) [Compound 48, {4-[(7-{3-azabicyclo[3.1.0]heptan-3-yl}-5-methyl-[1,2,4]triazolo[1,5-a]pyrimidin-6-yl)methyl]phenyl}(imino)methyl-λ^6-sulfanone] |
| – | 5.56 | 3 to 300 | – | CN(C)c1c(Cc2ccc(S(C)(=N)=O)cc2)c(C(F)(F)F)nc2ncnn12 (stereo not shown) [Compound 51] |
| – | 4.85 | 3 to 300 | – | CS(=N)(=O)c1ccc(Cc2c(C(F)(F)F)nc3ncnn3c2N2CCCCC2)cc1 (stereo not shown) [Compound 52] |
| – | 0.19 | < 3 | – | Cc1nc2ncnn2c(N(C)C)c1Cc1ccc(S(=N)(=O)C2COC2)cc1 (stereo not shown) [Compound 62, [(4-{[7-(dimethylamino)-5-methyl-[1,2,4]triazolo[1,5-a]pyrimidin-6-yl]methyl}phenyl)(oxetan-3-yl)imino-λ^6-sulfanyl]one] |
| – | 0.0363 | < 3 | – | Cc1nc2ncnn2c(N(C)C)c1Cc1ccc(S(=N)(=O)C2CC2)cc1 (stereo not shown) [Compound 63, [cyclopropyl(4-{[7-(dimethylamino)-5-methyl-[1,2,4]triazolo[1,5-a]pyrimidin-6-yl]methyl}phenyl)imino-λ^6-sulfanyl]one] |
| – | 181 | 3 to 300 | – | Cc1nc2ncnn2c(N(C)C)c1Cc1cccc(S(N)(=O)=O)c1 [Compound 65, 3-{[7-(dimethylamino)-5-methyl-[1,2,4]triazolo[1,5-a]pyrimidin-6-yl]methyl}benzene-1-sulfonamide] |
| – | > 1500 | > 300 | – | CS(=N)(=O)Cc1ccc(-c2cnc3ncnn3c2)cc1 (stereo not shown) [Compound 66, imino(methyl)[(4-{[1,2,4]triazolo[1,5-a]pyrimidin-6-yl}phenyl)methyl]-λ^6-sulfanone] |
| – | – | 3 to 300 | – | Cc1nc2ncnn2c(N(C)C)c1-c1ccc(CCS(C)(=N)=O)cc1 (stereo not shown) [Compound 68, (2-{4-[7-(dimethylamino)-5-methyl-[1,2,4]triazolo[1,5-a]pyrimidin-6-yl]phenyl}ethyl)(imino)methyl-λ^6-sulfanone] |
